Data on 2 compounds can be found in article PMC10674160, “Synthesis and Preclinical Evaluation of Radiolabeled [^103Ru]BOLD-100” (Pharmaceutics, 2023).

Broadly, the IC50 is the point on the concentration scale where inhibition reaches its midpoint.

One test has as its system HCT116 cells. The test is described as follows: MTT cytotoxicity assay, 96 h exposure. Type of test: cell-based, human. The settings on record: exposure time 96 h, mean ± SD. As to the method: (§1) The murine cancer cell line CT26 and the human cancer cell line HCT116 were both obtained from the American Type Culture Collection (ATCC). Both cell lines were grown as adherent monolayer cultures in 75 cm^2 culture flasks in RPMI 1640 medium (supplemented with 2 mM L-glutamine and 1% PenStrep, Gibco^TM) and 10% fetal bovine serum (FBS, Gibco^TM) at 37 °C under a humid atmosphere containing 5% CO2 and 95% air. For splitting, accutase® solution (Sigma Aldrich) was used.
(§2) Cell viability was determined by the colorimetric MTT assay. The cells were seeded in RPMI 1640 medium in a 96-well cell culture plate 24 h prior to treatment at a density of 1.5 × 10^3 (CT26) and 2 × 10^3 (HCT116) cells per well. A stock solution of compounds 3a and 3b was prepared in DMSO and then diluted with RPMI 1640 medium (maximum 0.5% v/v of DMSO per well). After serial dilutions, a 100 µL aliquot was added to each well ([…], 6.25, 3.13 µmol/L per well). […] Optical densities were measured at 490 nm with a Synergy^TM HTX Multi-Mode Reader (BioTek, Winooski, VT, USA), using a reference wavelength of 650 nm to correct for unspecific absorption. Concentration–effect curves were calculated relative to untreated controls. […]

The test system of a further test is CT26 cells. The test is described as follows: MTT cytotoxicity assay, 96 h exposure. The conditions noted are these: exposure time 96 h, mean ± SD. Type of test: cell-based, murine. As to the method: as §1, §2
A general note: Formazan colour is commonly taken as a measure of viable cells.

Regarding `[Cl][Ru]([Cl])([Cl])[Cl].[Na+].c1ccc2[nH]ncc2c1.c1ccc2[nH]ncc2c1` [3b, [^103Ru]sodium trans-[tetrachloridobis(indazole)ruthenate(III)]], the values for the IC50 in the test with HCT116 cells and with CT26 cells were 94.7 ± 11.7 µM and 173 ± 15.1 µM, respectively.
For `[Cl][Ru-]([Cl])([Cl])[Cl].[Na+].c1ccc2[nH]ncc2c1.c1ccc2[nH]ncc2c1` [3a, sodium trans-[tetrachloridobis(indazole)ruthenate(III)]], in that order: 99.4 ± 14.5 µM and 188 ± 17.8 µM.
